Measurements taken from PMC6166654 (Leukemia, 2018).

Experiments:
[1] = test system: TF1/SHP2^E69K cells; assay: Immunoblot analysis of cell lysates; assay type: cell-based, human; settings: 2 days of SHP099 treatment
[2] = test system: TF1/SHP2^E76K cells; assay: Immunoblot analysis of cell lysates; assay type: cell-based, human; settings: 2 days of SHP099 treatment
[3] = test system: TF1/SHP2^E76K cells; assay: Methylcellulose colony formation assay; assay type: cell-based, human; settings: methylcellulose culture, 10 µM SHP099, day 7
[4] = test system: TF-1 cells; assay: Immunoblot analysis of cell lysates; assay type: cell-based, human
[5] = test system: MV4-11 cells; assay: Immunoblot analysis of cell lysates; assay type: cell-based
[6] = test system: TF-1 cells; assay: Cell growth; assay type: cell-based, human; settings: read-out: cell growth IC50, medium with GM-CSF, 5 days
[7] = test system: TF1/SHP2^E69K cells; assay: Cell growth in GM-CSF free medium; assay type: cell-based, human; settings: read-out: cell growth IC50, 5 days
[8] = test system: TF1/SHP2^D61Y cells; assay: Immunoblot analysis of cell lysates; assay type: cell-based, human; settings: 2 days of SHP099 treatment
[9] = test system: MV4-11 myeloid leukemia cells; assay: Cell growth; assay type: cell-based; settings: read-out: cell growth IC50; MV4-11 cells; 5 days
[10] = test system: TF1/SHP2^E69K cells; assay: Methylcellulose colony formation assay; assay type: cell-based, human; settings: methylcellulose culture, 10 µM SHP099, day 7
[11] = test system: TF1/SHP2^A72V cells; assay: Immunoblot analysis of cell lysates; assay type: cell-based, human; settings: 2 days of SHP099 treatment
[12] = test system: SHP2-knocked out TF-1 cell lines (TF1/KO1, TF1/KO2); assay: Cell growth and cell lysate analysis in SHP2 knockout cells; assay type: cell-based, human; settings: medium with GM-CSF

In the case of `CC1(N)CCN(c2cnc(-c3cccc(Cl)c3Cl)c(N)n2)CC1` [SHP099], the Bcl-XL level [1] is reported as “reduced”, the PARP cleavage [1] is reported as “induction” and the pERK1/2 level [1] is reported as “reduced”. For the same molecule, the Bcl-XL level [2] was “little effect”, the PARP cleavage [2] was “did not induce” and the pERK1/2 level [2] was “little effect”. For the same molecule, the GM-CSF hypersensitivity [3] was “did not affect”, the cytokine-independent colonies [3] was “little effect” and the Bcl-XL level [4] was “reduced”. For the same molecule, the PARP cleavage [4] was “induced”, the “active ERK” value [4] was “inhibited” and the Bcl-XL level [5] was “reduced”. For the same molecule, the PARP cleavage [5] was “induced”, the pERK1/2 level [5] was “reduced” and the IC50 [6] was 1730 ± 520 nM. The IC50 [7] was 1460 ± 460 nM, the Bcl-XL level [8] was “little effect” and the PARP cleavage [8] was “did not induce”. For the same molecule, the pERK1/2 level [8] was “little effect”, the IC50 [9] was 320 ± 110 nM and the GM-CSF hypersensitivity [10] was “lost”. The cytokine-independent colonies [10] was “eliminated”, the Bcl-XL level [11] was “little effect” and the PARP cleavage [11] was “did not induce”. The pERK1/2 level [11] was “little effect” and the “effects in SHP2-knocked out TF-1 cell lines” value [12] was “little effects”.
